# Test system: NCI-H929 multiple myeloma cells
# Assay: Cell Titer-GLO (CTG) assay for proliferation of NCI-H929 cells
# Assay type: cell-based
# Conditions: Homo sapiens, 72 hours
# Description: 1. Experimental objective: To determine inhibitory activities of compounds on NCI-H929 multiple myeloma cells.
# NCI-H929 cells, purchased from Nanjing Cobioer Biotechnology Co., Ltd, were cultured in RPM11640 (Viva; C3010-0500) medium containing 10% fetal bovine serum (Viva, C04002-500) and 1% of penicillin-streptomycin at 37° C. with 5% of C02 and saturated humidity conditions.
# The cells in logarithmic growth phase were plated at 5000 cells per well of a 96-well plate and after overnight incubation, compounds at 0.00512 nM, 0.0256 nM, 0.128 nM, 0.64 nM, 3.2 nM, 16 nM, 80 nM, and 400 nM were dosed into the plate with each dose in 2 duplicate wells. Cells were incubated at 37° C., 5% CO2 for 72 hours. After the incubation, the plate was placed at room temperature for half an hour, and then 50 μL of Cell Titer-Glo® (Promega, G7573) was added. The plate was placed on a shaker for uniform mixing for 2 minutes and was placed in the dark at room temperature for 10 minutes. The luminance signal was measured using SpectraMax Paradigm (Molecular Devices).
# Cell activity inhibition rate (%)=1 00−(RLUcompound−RLUblank)/(RLUcontrol−RLUblank)×100%, where control refers to the 0.1% DMSO treatment group, and blank refers to the culture medium control. IC50 values and maximum inhibition rates of the compounds were calculated using a nonlinear regression function “Dose-Response-Inhibition” in Graphpad Prism 7.0.
compound,measurement,value
"Cc1ncn(-c2ncc(F)c(N3CCN(C4CN(Cc5ccc(Cc6ccc7c8c(cccc68)C(=O)N7C6CCC(=O)NC6=O)cc5)C4)CC3)n2)n1 (centres unmarked) [Example 49, 3-(6-(4-((3-(4-(5-fluoro-2-(3-methyl-1H-1,2,4-triazol-1-yl)pyrimidin-4-yl)piperazin-1-yl)azetidin-1-yl)methyl)benzyl)-2-oxobenzo[cd]indol-1(2H)-yl)piperidin-2,6-dione]",IC50,0.003 nM
"Cc1ncc(-c2ncc(F)c(N3CCN(Cc4ccc(Cc5ccc6c7c(cccc57)C(=O)N6C5CCC(=O)NC5=O)cc4)CC3)n2)s1 (centres unmarked) [Example 67, 3-(6-(4-((4-(5-fluoro-2-(2-methylthiazol-5-yl)pyrimidin-4-yl)piperazin-1-yl)methyl)benzyl)-2-oxobenzo[cd]indol-1(2H)-yl)piperidin-2,6-dione]",IC50,0.07 nM
"O=C1CCC(N2C(=O)c3cccc4c(Cc5ccc(CN6CCN(CC7CCN(c8cccc(-n9ccnc9)n8)CC7)CC6)cc5)ccc2c34)C(=O)N1 (centres unmarked) [Example 8, 3-(6-(4-((4-((1-(6-(1H-imidazol-1-yl)pyridin-2-yl)piperidin-4-yl)methyl)piperazin-1-yl)methyl)benzyl)-2-oxobenzo[cd]indol-1(2H)-yl)piperidin-2,6-dione]",IC50,0.04 nM
"O=C1CCC(N2C(=O)c3cccc4c(Cc5ccc(CN6CCN(c7ccnc(-c8cncs8)n7)CC6)cc5)ccc2c34)C(=O)N1 (centres unmarked) [Example 58, 3-(2-oxo-6-(4-((4-(2-(thiazol-5-yl)pyrimidin-4-yl)piperazin-1-yl)methyl)benzyl)benzo[fcd]indol-1(2H)-yl)piperidin-2,6-dione]",IC50,0.03 nM
"N#Cc1cn(-c2nccc(N3CCN(Cc4ccc(Cc5ccc6c7c(cccc57)C(=O)N6C5CCC(=O)NC5=O)cc4)CC3)n2)cn1 (centres unmarked) [Example 44, 3-(6-(4-((4-(2-(4-cvano-1H-imidazol-1-yl)pyrimidin-4-yl)piperazin-1-yl)methyl)benzyl)-2-oxobenzo[cd]indol-1(2H)-yl)piperidin-2,6-dione]",IC50,0.01 nM
"O=C1CC[C@H](N2C(=O)c3cccc4c(Cc5ccc(CN6CCN(c7ccnc(-n8cnc(C(F)(F)F)c8)n7)CC6)cc5)ccc2c34)C(=O)N1 [Example 33, (S)-3-(2-oxo-6-(4-((4-(2-(4-(trifluoromethyl)-1H-imidazol-1-yl)pyrimidin-4-yl)piperazin-1-yl)methyl)benzyl)benzo[cd]indol-1(2H)-yl)piperidin-2,6-dione]",IC50,0.02 nM
"O=C1CCC(N2C(=O)c3cccc4c(Cc5ccc(CN6CCN(c7cc(C(F)(F)F)nc(-n8cnc(C(F)(F)F)c8)n7)CC6)cc5)ccc2c34)C(=O)N1 (centres unmarked) [Example 56, 3-(2-oxo-6-(4-((4-(6-(trifluoromethyl)-2-(4-(trifluoromethyl)-1H-imidazol-1-yl)pyrimidin-4-yl)piperazin-1-yl)methyl)benzyl)benzo[cd]indol-1(2H)-yl)piperidin-2,6-dione]",IC50,0.1 nM
"O=C1CC[C@H](N2Cc3c(OCc4ccc(CN5CCN([C@H]6CC[C@H](NC(=O)c7ccnc(-n8ccnc8)n7)CC6)CC5)cc4)cccc3C2=O)C(=O)N1 [Example 15, N-((1R,4R)-4-(4-(4-(((2-((S)-2,6-dioxopiperidin-3-yl)-1-oxoisoindolin-4-yl)oxy)methyl)benzyl)piperazin-1-yl)cyclohexyl)-2-(1H-imidazol-1-yl)pyrimidin-4-carboxamide]",IC50,0.1 nM
"Cc1nc(N2CCN(C3CN(Cc4ccc(COc5cccc6c5CN([C@H]5CCC(=O)NC5=O)C6=O)cc4)C3)CC2)cc(-n2cnc(C(F)(F)F)c2)n1 [Example 78, (S)-3-(4-((4-((3-(4-(2-methyl-6-(4-(trifluoromethyl)-1H-imidazol-1-yl)pyrimidin-4-yl)piperazin-1-yl)azetidin-1-yl)methyl)benzyl)oxy)-1-oxoisoindolin-2-yl)piperidin-2,6-dione]",IC50,0.1 nM
"O=C1CC[C@@H](N2C(=O)c3cccc4c(Cc5ccc(CN6CCN(c7ccnc(-n8cnc(C(F)(F)F)c8)n7)CC6)cc5)ccc2c34)C(=O)N1 [Example 34, (R)-3-(2-oxo-6-(4-((4-(2-(4-(trifluoromethyl)-1H-imidazol-1-yl)pyrimidin-4-yl)piperazin-1-yl)methyl)benzyl)benzo[cd]indol-1(2H)-yl)piperidin-2,6-dione]",IC50,0.03 nM
"Cc1nnc(-c2cccc(N3CCN(Cc4ccc(Cc5ccc6c7c(cccc57)C(=O)N6[C@H]5CCC(=O)NC5=O)cc4)CC3)n2)s1 [Example 35, (S)-3-(6-(4-((4-(6-(5-methyl-1,3,4-thiadiazol-2-yl)pyridin-2-yl)piperazin-1-yl)methyl)benzyl)-2-oxobenzo[cd]indol-1(2H)-yl)piperidin-2,6-dione]",IC50,0.01 nM
"Cc1nncn1-c1cccc(N2CCN(Cc3ccc(Cc4ccc5c6c(cccc46)C(=O)N5C4CCC(=O)NC4=O)cc3)CC2)n1 (centres unmarked) [Example 28, 3-(6-(4-((4-(6-(3-methyl-4H-1,2,4-triazol-4-yl)pyridin-2-yl)piperazin-1-yl)methyl)benzyl)-2-oxobenzo[cd]indol-1(2H)-yl)piperidin-2,6-dione]",IC50,0.03 nM
"Cc1nc(N2CCN(Cc3ccc(Cc4ccc5c6c(cccc46)C(=O)N5C4CCC(=O)NC4=O)cc3)CC2)cc(-n2cnc(C(F)(F)F)n2)n1 (centres unmarked) [Example 70, 3-(6-(4-((4-(2-methyl-6-(3-(trifluoromethyl)-1H-1,2,4-triazol-1-yl)pyrimidin-4-yl)piperazin-1-yl)methyl)benzyl)-2-oxobenzo[cd]indol-1(2H)-yl)piperidin-2,6-dione]",IC50,0.1 nM
"Cc1nc(N2CCN(Cc3ccc(Cc4ccc5c6c(cccc46)C(=O)N5C4CCC(=O)NC4=O)cc3)CC2)cc(-n2cnc(C(F)(F)F)c2)n1 (centres unmarked) [Example 29, 3-(6-(4-((4-(2-methyl-6-(4-(trifluoromethyl)-1H-imidazol-1-yl)pyrimidin-4-yl)piperazin-1-yl)methyl)benzyl)-2-oxobenzo[cd]indol-1(2H)-yl)piperidin-2,6-dione]",IC50,0.02 nM
"O=C1CCC(N2C(=O)c3cccc4c(Cc5ccc(CN6CCN(c7ccnc(-c8cccnc8)n7)CC6)cc5)ccc2c34)C(=O)N1 (centres unmarked) [Example 64, 3-(2-oxo-6-(4-((4-(2-(pyridin-3-yl)pyrimidin-4-yl)piperazin-1-yl)methyl)benzyl)benzo[cd]indol-1(2H)-yl)piperidin-2,6-dione]",IC50,0.02 nM
"Cc1nc(N2CCN(Cc3ccc(COc4cccc5c4CN([C@H]4CCC(=O)NC4=O)C5=O)cc3)CC2)cc(-n2cnc(C)n2)n1 [Example 71, (S)-3-(4-((4-((4-(2-methyl-6-(3-methyl-1H-1,2,4-triazol-1-yl)pyrimidin-4-yl)piperazin-1-yl)methyl)benzyl)oxy)-1-oxoisoindolin-2-yl)piperidin-2,6-dione]",IC50,0.1 nM
"Cc1ncn(-c2nccc(N3CCN(Cc4ccc(Cc5ccc6c7c(cccc57)C(=O)N6C5CCC(=O)NC5=O)cc4)CC3)n2)n1 (centres unmarked) [Example 41, 3-(6-(4-((4-(2-(3-methyl-1H-1,2,4-triazol-1-yl)pyrimidin-4-yl)piperazin-1-yl)methyl)benzyl)-2-oxobenzo[cd]indol-1(2H)-yl)piperidin-2,6-dione]",IC50,0.006 nM
"O=C1CCC(N2C(=O)c3cccc4c(Cc5ccc(CN6CCN(c7cccc(-n8ccnc8)n7)CC6)cc5)ccc2c34)C(=O)N1 (centres unmarked) [Example 2, 3-(6-(4-((4-(6-(1H-imidazol-1-yl)pyridin-2-yl)piperazin-1-vi)methyl)benzyl)-2-oxobenzo[cd]indol-1(2H)-yl)piperidin-2,6-dione]",IC50,0.02 nM
"Cc1nc(N2CCN(Cc3ccc(Cc4ccc5c6c(cccc46)C(=O)N5[C@H]4CCC(=O)NC4=O)cc3)CC2)cc(-n2cnc(C)n2)n1 [Example 46, (S)-3-(6-(4-((4-(2-methyl-6-(3-methyl-1H-1,2,4-triazol-1-yl)pyrimidin-4-yl)piperazin-1-yl)methyl)benzyl)-2-oxobenzo[cd]indol-1(2H)-yl)piperidin-2,6-dione]",IC50,0.01 nM
"Cc1nnc(-c2cccc(N3CCN(Cc4ccc(Cc5ccc6c7c(cccc57)C(=O)N6[C@@H]5CCC(=O)NC5=O)cc4)CC3)n2)s1 [Example 36, (R)-3-(6-(4-((4-(6-(5-methyl-1,3,4-thiadiazol-2-yl)pyridin-2-yl)piperazin-1-yl)methyl)benzyl)-2-oxobenzo[cd]indol-1(2H)-yl)piperidin-2,6-dione]",IC50,0.02 nM
"O=C1CC[C@H](N2Cc3c(OCc4ccc(CN5CCN(CC6CCN(c7cccc(-n8ccnc8)n7)CC6)CC5)cc4)cccc3C2=O)C(=O)N1 [Example 17, (S)-3-(4-((4-((4-((1-(6-(1H-imidazol-1-yl)pyridin-2-yl)piperidin-4-yl)methyl)piperazin-1-yl)methyl)benzyl)oxy)-1-oxoisoindolin-2-yl)pyridin-2,6-dione]",IC50,0.1 nM
"Cc1ncn(-c2nc(N3CCN(Cc4ccc(Cc5ccc6c7c(cccc57)C(=O)N6C5CCC(=O)NC5=O)cc4)CC3)cc(C(F)(F)F)n2)n1 (centres unmarked) [Example 69, 3-(6-(4-((4-(2-(3-methyl-1H-1,2,4-triazol-1-yl)-6-(trifluoromethyl)pyrimidin-4-yl)piperazin-1-yl)methyl)benzyl)-2-oxobenzo[cd]indol-1(2H)-yl)piperidin-2,6-dione]",IC50,0.04 nM
"Cc1ncn(-c2ncc(F)c(N3CCN(Cc4ccc(Cc5ccc6c7c(cccc57)C(=O)N6C5CCC(=O)NC5=O)cc4)CC3)n2)n1 (centres unmarked) [Example 68, 3-(6-(4-((4-(5-fluoro-2-(3-methyl-1H-1,2,4-triazol-1-yl)pyrimidin-4-yl)piperazin-1-yl)methyl)benzyl)-2-oxobenzo[cd]indol-1(2H)-yl)piperidin-2,6-dione]",IC50,0.02 nM
